Structure (SMILES) | melting point
CCOC(=O)N=C(OCC)c1ccccc1Cl | 65 to 66 °C
CCCCCCCNCc1cccc(OCCCNc2nc(N)nn2C)c1 | 64 to 65 °C
c1csc(-c2ncc(COc3ccc(CCCn4ccnc4)cc3)s2)c1 | 112 to 113 °C
COc1cc(C(C)C(=O)NCC(COC(=O)C(C)(C)C)Cc2ccc(C)c(C)c2)ccc1NS(C)(=O)=O (stereo unspecified) | 54 to 57 °C
COC(=O)c1cccc2[nH]c3ccccc3c12 | 84.3 °C
Cc1oc(-c2ccccc2)nc1COc1ccc(CCOS(C)(=O)=O)cc1 | 66 to 67 °C
CC(C)(C)c1cc(C(=O)C2CC2)cc(C(C)(C)C)c1O | 140 to 142 °C
Cc1cc(C2=NN(C(N)=S)[C@H](C)Cc3cc4c(cc32)OCO4)ccc1[N+](=O)[O-] | 123 to 125 °C
CCCCCCCCCCCCCc1nc(NC(=O)Nc2c(C(C)C)cccc2C(C)C)no1 | 99 to 101 °C
C[C@H](NC(=O)OC(C)(C)C)C(=O)OCCCCNc1cccc2c1C(=O)c1ccccc1C2=O | 100 °C
COC(=O)Cc1cc(NC(=O)OC(C)(C)C)c(NC(=O)CC(=O)c2cccc(C#N)c2)cc1C#Cc1ccccc1 | 138 °C
Cc1cccc(NC(=O)C(=O)OCC#CI)c1 | 170 to 172 °C
CCCNC(C)=NC(=Nc1ccccc1)N1CCOCC1 | 101 to 103 °C
CCOc1cccc2cc(C(=O)c3ccc(Cl)cc3)oc12 | 108 to 110 °C
Cc1cccc(NC(=O)OC(C)(C)C)c1CNc1cccn2c(C)c(C)nc12 | 128 to 131 °C
CCCCC(=O)c1ccc(C(=O)Nc2ccc3cc(CN4CCCC4)cnc3c2C)cc1 | 180 °C
CCC(C)(C)c1cc(-c2cccc(CC3SC(N4CCOCC4)=NC3=O)n2)ccc1O (stereo unspecified) | 240 to 242 °C
O=C(N[C@@H](Cc1ccccc1)C(=O)N1CCS(=O)CC1)c1cc2cc(Cl)ccc2[nH]1 | 230 to 234 °C
CCCOc1ccc2c(c1)C(c1ccc(OC)cc1OCC(=O)O)C(CN)C2c1ccc2c(c1)OCO2 (stereo unspecified) | 237 to 242 °C
COC(=O)CCc1cnoc1-c1ccc([N+](=O)[O-])cc1 | 118 to 119 °C
Cc1cccc(Nc2nnc(Cc3ccncc3)c3ccccc23)c1 | 141 to 143 °C
Cc1cc(OS(=O)(=O)C(F)(F)F)ccc1S(C)(=O)=O | 51 °C
Cc1[nH]c(=O)c(C#N)cc1-c1ccccc1OCC(=O)O | 297 to 299 °C
Fc1ccc2c(c1)Cc1cc(F)ccc1O2 | 117 to 118 °C
NC(=O)c1ncn2c1CN=C(c1ccccc1)c1cc(Cl)ccc1-2 | 295 to 296 °C
CN(C)C(=N[N+](=O)[O-])N(Cc1cnc(Cl)s1)S(C)(=O)=O | 82 to 86 °C

Structure (SMILES) | melting point
C[C@H]1COc2c(C#N)cccc2C(=O)N(C[C@@H](CCN)c2ccc(Cl)c(Cl)c2)C1 | 82 to 128 °C
O=C(NC1CCc2ccccc21)c1ccc2cnccc2n1 (stereo unspecified) | 156 to 157 °C
OCC1OC(n2cc(COc3ccc(C4=NC(=Nc5[nH]c(-c6ccc(O)cc6)cc5-c5ccccc5)C(c5ccccc5)=C4)cc3)nn2)C(O)C(O)C1O (stereo unspecified) | 180 to 182 °C
CCCCCCCCCCCCCCC(=O)C(=O)N[C@@H](CCCC)C(=O)NCC(=O)OCC | 63 to 65 °C
CC(=O)N(C)c1cccc(-c2ccnc3c(C(=O)c4ccccc4)cnn23)c1 | 162 to 164 °C
CN(C[C@H](O)[C@@H](O)[C@H](O)[C@H](O)CO)C(=O)c1ccc2n1Cc1ccccc1N(C(=O)c1ccc(-c3cccc4ccccc34)nc1)C2 | 165 to 167 °C
Cc1cc(C#N)nc(Cl)n1 | 57 °C
O=C(O)C1CCCc2c(-c3ccc(Cl)cc3)noc2C1 (stereo unspecified) | 215 to 217 °C
Nc1nc(-c2ccccn2)nc2ccccc12 | 173 to 174 °C
COc1cc(OC)cc(C(=O)N2CCc3cc(OCc4ccccc4)ccc3C2=O)c1 | 158 to 159 °C
CCOc1ccc(-c2c(C)c3cc(O)ccc3n2Cc2ccc(OCCN3CCCCCC3)cc2)cc1 | 133 to 135 °C
Cc1nc(SCc2cnccc2C(=O)O)sc1CC(=O)O | 207 to 211 °C
O=C1c2cccc3cccc(c23)C(=O)N1CCCCN1CCC(O)(c2ccccc2)CC1 | 138 to 139 °C
Cc1cc(C)c(C=CC#N)c(Br)c1 | 95 to 96 °C
Nc1cc(Cl)c(Oc2ccc(S(=O)(=O)c3ccc(Cl)cc3)cc2)c(Cl)c1 | 186 to 187 °C
O=C(O)C1Cc2ccc3ccccc3c2C1 (single isomer, unassigned; (-)) | 139 to 141 °C
CN(C)CCc1ccc(N)cc1 | 40 °C
O=C(O)CCCn1sc2ccc([N+](=O)[O-])cc2c1=O | 183 to 186 °C
CC(=O)Nc1cccc2cc(S(=O)(=O)Nc3onc(C)c3C)ccc12 | 210 to 212 °C
N#CCCCc1ncc(Br)cc1[N+](=O)[O-] | 73 to 76 °C
COC(=O)C1CCc2cc(C)c(C)cc2C1=O (stereo unspecified) | 80 to 81 °C
CC(C)(C)P(c1cccc2ccccc12)C(C)(C)C | 95 to 97 °C
Cc1cc(CCc2c(Br)c(C)c(O)c(C)c2Br)c(Br)c(C)c1O | 249 to 255 °C
OCC1CCC(O)C1O (stereo unspecified) | 157 to 159 °C
COC(=O)c1cccc(Oc2cccc(Br)n2)c1 | 68 to 69 °C
CN1CCN(C(=O)COc2cccc(-n3nc(-c4ccc(F)cc4)c4cccnc43)c2)CC1 | 132 to 135 °C

Structure (SMILES) | melting point
CC(C)Oc1ccccc1C(=O)NC(=O)NC1CN2CCC1CC2 (stereo unspecified) | 171 to 175 °C
NS(=O)(=O)c1cc2c(=O)[nH]ccc2s1 | 300 to 301 °C
CONC(=NCCSCc1[nH]cnc1C)NC#N | 155 to 156 °C
CCOc1ccc(-c2nc(-c3cc(C=CC(=O)O)c(O)c(C(=O)O)c3)cs2)cc1OCC | 260 to 261 °C
CCOC(=O)c1cnn(C)c1NCc1ccc(-c2ccccc2C#N)cc1 | 107 to 108 °C
O=c1oc2cc(O)cc(O)c2c(O)c1C1=CCOc2oc3ccccc3c(=O)c21 | 254 to 256 °C
CCOC(=O)Cc1c(C(=O)OCC)c(O)c(C(=O)c2ccc(Cl)cc2)n1C | 145 to 147 °C
O=C1CCC(c2nc(-c3ccccc3)c(-c3ccccc3)o2)N1 (stereo unspecified) | 145 to 147 °C
CCOC(=O)C=Cc1ccc(NC(=O)CC)cc1 | 138 °C
COCOc1ccc(Nc2ncccc2NS(=O)(=O)c2ccc(OC)cc2)cc1 | 118 to 119 °C
CC1(CN2CCN(C(=O)OCc3ccc(C(=O)c4ccccc4)cc3)CC2)Cn2cc([N+](=O)[O-])nc2O1 (stereo unspecified) | 105 to 107 °C
OC(CN1CCC(CCOC(c2ccccc2)c2ccccc2)C(O)C1)c1ccc(F)cc1 (stereo unspecified) | 84 to 86 °C
NC(=Nc1ccc2[nH]c3ccccc3c2c1)c1cccs1 | 243 to 244 °C
CCC(CC)C(NC(=O)c1ccc(Cl)cc1)NC(=NC#N)Nc1cccnc1 (stereo unspecified) | 185 to 187 °C
Oc1ccc(C2(c3ccccc3)OCCCC2c2ccccc2)cc1 (stereo unspecified) | 194 to 196 °C
N#Cc1ccc(Oc2ccccc2)cn1 | 84 to 85 °C
CCON=C(C(C)=NOCc1ccccc1C(=NOC)C(=O)NC)c1ccc(OCc2cccc(C(F)(F)F)c2)cc1 | 130 to 132 °C
CC(C)(C)OC(=O)c1ncn2c1[C@@H]1CCCN1C(=O)c1c-2ccc(F)c1Cl | 211 to 212 °C
O=C(NC[C@@H]1CCNC[C@H]1O)c1cc(Cl)cc2c1OCCCO2 | 114 °C
Clc1ccc(C2Cc3cnc(Nc4ccc(CCN5CCCCC5)cc4)nc3-c3ccccc32)cc1Cl (stereo unspecified) | 157 to 158 °C
CCOC(=O)C=C(C)Nc1c[nH]nc1-c1ccc(Cl)cc1 | 145 to 146 °C
COc1cc(Nc2nccc(-c3sc(Nc4ccccc4)nc3C)n2)cc(OC)c1 | 191 to 194 °C
O=C(Nc1cccc(S(=O)(=O)NCc2ccccc2)c1)c1cnn2c(C(F)(F)F)cc(-c3ccc(C(F)(F)F)cc3)nc12 | 227 °C
COc1ccc2ncc([N+](=O)[O-])c(Nc3ccccc3Cl)c2c1 | 163 to 165 °C
COCc1cc(C)nc2c(OCc3ccccc3)cccc12 | 73.7 to 76.3 °C
CCc1[nH]c(=S)n(Nc2cccc(C)c2)c1-c1ccccc1 | 202 to 204 °C

Structure (SMILES) | melting point
NCC1Cc2c(F)c(F)cc(-c3ccccc3)c2O1 (stereo unspecified) | > 240 °C
CCCCc1ccc(COC(=O)NC2CN3CCC2CC3)cc1 (stereo unspecified) | 174 to 175 °C
CCOC(=O)COc1cccc(C2C(C(=O)OCC)=C(C)NC(C)=C2C(=O)OCC)c1 | 108 °C
COC(=O)NC(C)=NS(=O)(=O)NC(C)C | 193 to 196 °C
CN1CCN(c2nn(C(=O)c3ccccc3)c3ccc(Cl)cc23)CC1 | 105 to 107 °C
COc1ccccc1Oc1c(Cl)nc(SC)nc1Cl | 148 to 150 °C
O=C(O)CCCC=Cc1nn(-c2ccccc2)c2c1CCC2 | 130 to 131 °C
Cc1cc(Br)ccc1NC(=O)CC(=O)O | 163 to 165 °C
O=Cc1cccc(Cl)n1 | 136 °C
CN(C)NC(=O)c1cc(S(C)(=O)=O)c(Cl)cc1NCc1ccco1 | 90 to 104 °C
NC(=O)c1[nH]cnc1OC(=O)C=Cc1ccccc1 | 170 to 175 °C
CCc1nc2c(N)nc3ccccc3c2n1CCCCNC(=O)C(C)C | 155 to 156 °C
CC1(c2cc(/C=C/c3ccc(C(=O)O)cc3)ccc2O)CCCCC1 | 229 °C
CCOC(=O)C(=O)CC(=O)c1cn(Cc2ccccc2OC)c2ccccc2c1=O | 154 to 156 °C
CCCc1cc(Cn2c(=O)ccc3c(CC)nc(CC)cc32)ccc1O[Si](C)(C)C(C)(C)C | 103 to 105 °C
CS(=O)(=O)c1ccc(Oc2ccc(Cl)c(Cl)c2)nc1C#N | 168 to 170 °C
Nc1ccc(N2CCN(Cc3ccccc3)CC2)cc1CS(=O)(=O)c1ccccc1 | 141 to 143 °C
CCC(O)(CC)c1cc(Cl)ccc1O | 76 °C
COc1ccc(-c2[nH]c3ncnc(Nc4cccc(Cl)c4)c3c2C)cc1 | 265 to 268 °C
Cc1ccc2c3c(ncc2c1)CCC(=O)N3 | 265 to 266 °C
CC(C)C1(C)N=C2c3ncccc3C(=O)N2C1=O (stereo unspecified) | 125 to 128 °C
C#CCOc1ccc(C(=O)C=Cc2c(OC)cc(OC)cc2OC)c(O)c1 | 177 to 179 °C
O=C(O)C(O)c1cccc(OCc2ccccc2Cl)c1OCc1ccccc1Cl (stereo unspecified) | 98 to 100 °C

Reference: a melting point compilation (Tetko et al.; mined from patent text by program, amines drawn as free bases though some values may be those of a salt)
